Usually IC50 stands for the concentration needed to halve the response being measured. For orientation: EC50 means the concentration at which the effect is half-maximal.

Read-outs that look alike come from different tables or passages of the source. Some results are limits rather than exact numbers.

The target in one data set is 3CLpro (Severe acute respiratory syndrome coronavirus 2, UniProt P0DTD1). Kind of data set: SARS-CoV-2 3CLpro protease assay (duplex, SAMDI-MS). The note with it: 3CLpro, 30 mins preincubation, read-out: SARS-Cov-2 IC50. Also noted: For the duplex assay, 3CLpro and HRV3C was added. Format: biochemical.
A short description of data set [1]: Cytotoxicity plates without OC43 virus (cell-titer-glo). Particulars: human; HeLa cells without OC43 virus, class symbols. The format is cell-based, human. The method in brief:
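HeLa cells seeded overnight, then treated with serially diluted compounds in 2% FBS EMEM, uninfected, in parallel with the OC43 antiviral plates. Incubated 6 days at 33 °C; viability read by CellTiter-Glo luminescence.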

Data set [2] is described as follows: in vitro. The note with it: human.
In data set [3] the test system is SARS-CoV-2-GHB-03021/2020. Briefly: SARS-CoV-2 Infection Model in Huh7 Cells. The format is cell-based. The note with it: Severe acute respiratory syndrome coronavirus 2, Huh-7, 96 h, SARS-CoV-2, day 4 p.i., MTS.
The test system of data set [4] is human beta-coronavirus OC43. Briefly: microbe, parasite or virus in culture. Format: cell-based. The note with it: Betacoronavirus 1, OC43, HeLa, 144 h.
A further data set deals with T1, human cathepsin L (Homo sapiens, UniProt P07711).
T1 construct: purchased R&D Systems
Briefly: cathepsin L assay. The note with it: 10 pM human cathepsin L, Z-FR-AMC 2 μM, class symbols. Format: biochemical. The method, boiled down: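 Human cathepsin L at 10 pM was preincubated 30 min with compound, then reaction started with Z-FR-AMC (2 μM final). Fluorescence (355/460 nm) read every 2 min for 30 min; IC50 from four-parameter curve fit.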

For the next data set, the target named is HRV3C (Human rhinovirus 14, UniProt P03303). Briefly: HRV3C protease assay (duplex, SAMDI-MS). Format: biochemical, HRV. Particulars: 30 mins preincubation. The method in brief:
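Duplex format with 3CLpro; 30 min enzyme–compound preincubation, 30 min reaction with two peptide substrates, ambient temp. Stop: 0.5% formic acid, neutralized with 1% NaHCO3 (finals). Readout SAMDI-MS, product AUC over internal standard AUC; four-parameter IC50.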

Data set [5] concerns SARS-CoV-2-GHB-03021/2020. Briefly: microbe, parasite or virus in culture. Format: cell-based. Particulars: Severe acute respiratory syndrome coronavirus 2, Vero C1008, 96 h; read-out: VeroE6 + CP (EC50).
The nature of data set [6]: in vitro. The note with it: African green monkey, VeroE6 + CP (CC50), Vero E6-eGFP cells with CP-100356, absence of virus, MTS; numeric bounds.
Setting [7] is: OC43 in HeLa cells, 6 days at 33° C., class symbols, read-out: EC50.
Setting [8] is: HRV3C, bound, read-out: HRV IC50.
Where [9] appears, read: OC43 in HeLa cells, 6 days at 33° C., bound, read-out: EC50.

Regarding `COc1cccc2[nH]c(C(=O)N3C[C@H]4[C@@H]([C@H]3C(=O)N[C@@H](C[C@@H]3CCCNC3=O)C(=O)C(=O)NC3CC3)C4(C)C)cc12` [Compound 57, (3S)—N-cyclopropyl-3-{[(1R,2S,5S)-3-(4-methoxy-1H-indole-2-carbonyl)-6,6-dimethyl-3-azabicyclo[3.1.0]hexan-2-yl]formamido}-2-oxo-4-[(3S)-2-oxopiperidin-3-yl]butanamide], the IC50 at 3CLpro (class symbols) is 0.02 to 0.2 µM; against human cathepsin L, ≥ 10 µM; on HRV3C (HRV3C, class symbols, read-out: HRV IC50), 0.2 to 2 µM. Further, the CC50 at 6 days in data set [1] was > 10 µM. For the same molecule, the CC50 in the data set “in vitro [2]” is > 100 µM. Besides, the EC50 in data set [3] (class symbols) fell in the range of 1 to 10 µM; in data set [4] (setting [7]), 0.1 to 1 µM.

Take `O=C(NCc1ccccc1)C(=O)[C@H](Cc1cc[nH]n1)NC(=O)[C@@H]1CC2(CC2)CN1C(=O)c1cc2ccccc2[nH]1` [Compound 96, (S)—N—((S)-4-(benzylamino)-3,4-dioxo-1-(1H-pyrazol-3-yl)butan-2-yl)-5-(1H-indole-2-carbonyl)-5-azaspiro[2.4]heptane-6-carboxamide]: the IC50 at 3CLpro (class symbols) is 2 to 20 µM; against human cathepsin L it was 1 to 10 µM; at HRV3C (HRV IC50, HRV3C, bound), > 10 µM. Moreover, in [1], the CC50 at 6 days was > 10 µM. In addition, in the data set “in vitro [2]”, the CC50 is > 10 µM. Further, the EC50 in data set [3] (numeric bounds) was > 100 µM; in [4] it was 1 to 10 µM.

For the molecule `COc1cccc2oc(C(=O)N3C[C@@H]4CCC[C@@H]4[C@H]3C(=O)N[C@@H](C[C@@H]3CCNC3=O)C(=O)CO)cc12` [Compound 94, (1S,3aR,6aS)—N-[(2S)-4-hydroxy-3-oxo-1-[(3S)-2-oxopyrrolidin-3-yl]butan-2-yl]-2-(4-methoxy-1-benzofuran-2-carbonyl)-hexahydro-1H-cyclopenta[c]pyrrole-1-carboxamide], the IC50 was 0.2 to 2 µM at 3CLpro (class symbols), ≥ 10 µM at human cathepsin L and > 10 µM on HRV3C (setting [8]). In addition, the CC50 at 6 days in data set [1] was > 10 µM. The CC50 in “in vitro [2]” was > 100 µM. Also, the EC50 was 10 to 100 µM in data set [3] (class symbols) and 1 to 10 µM in [4] (setting [7]).

For `O=C(NCc1ccccc1)C(=O)[C@H](Cc1ccncc1)NC(=O)[C@@H]1CC2(CC2)CN1C(=O)c1cc2ccccc2[nH]1` [Compound 112], the IC50 is > 10 µM on 3CLpro (bound), 1 to 10 µM against human cathepsin L and > 10 µM at HRV3C (setting [8]). In addition, the CC50 at 6 days in [1] was > 10 µM. For the same molecule, in the data set “in vitro [2]”, the CC50 was > 10 µM. The EC50 in data set [3] (numeric bounds) was > 100 µM; in data set [4] (setting [9]), > 10 µM.

For `COc1c(Cl)ccc2[nH]c(C(=O)N3C[C@@H]4CCC[C@@H]4[C@H]3C(=O)N[C@@H](C[C@@H]3CCNC3=O)C(=O)CO)cc12` [Compound 68, (1S,3aR,6aS)-2-(5-chloro-4-methoxy-1H-indole-2-carbonyl)-N—((S)-4-hydroxy-3-oxo-1-((S)-2-oxopyrrolidin-3-yl)butan-2-yl)octahydrocyclopenta[c]pyrrole-1-carboxamide], the IC50 on 3CLpro (class symbols) is 0.02 to 0.2 µM; against human cathepsin L it was ≥ 10 µM; at HRV3C (setting [8]), > 10 µM. Moreover, the CC50 at 6 days in data set [1] is > 10 µM. In “in vitro [2]”, the CC50 is > 100 µM. Moreover, the EC50 fell in the range of 1 to 10 µM in data set [3] (class symbols) and 0.1 to 1 µM in [4] (setting [7]).

Consider `O=C1NCC[C@H]1C[C@H](NC(=O)[C@@H]1[C@H]2CCC[C@H]2CN1C(=O)c1cc2c(=O)[nH]ccc2[nH]1)C(=O)CO` [Compound 76, (1S,3aR,6aS)—N-[(2S)-4-hydroxy-3-oxo-1-[(3S)-2-oxopyrrolidin-3-yl]butan-2-yl]-2-{4-oxo-1H,5H-pyrrolo[3,2-c]pyridine-2-carbonyl}-hexahydro-1H-cyclopenta[c]pyrrole-1-carboxamide], for which the IC50 at 3CLpro (class symbols) is 0.02 to 0.2 µM; at human cathepsin L, ≥ 10 µM; against HRV3C (HRV IC50, HRV3C, class symbols), 0.2 to 2 µM. The CC50 at 6 days in data set [1] was > 10 µM. For the same molecule, the EC50 in [4] (setting [9]) is > 10 µM; in data set [5] it was 10 to 100 µM. Further, the CC50 in “in vitro [6]” is > 100 µM.

Values taken from patent US11952365B2, “Anti-viral compounds” (Aligos Therapeutics, Inc., priority 2020, dated 2024).
